The assay addresses T1, HCV NS3/4A protease complex, H77 strain (Hepatitis C virus genotype 1a, UniProt P27958, C1454S/C1711G).
T1 construct: DNA encoding the recombinant HCV NS3/4A protease complex (amino acids 1027 to 1711) for these strains; inferred from the pET21b vector and Ni-NTA purification; made in house; host or cells: Escherichia coli BL21 (DE3), pET21b
Kind of assay: FRET peptide assay to monitor HCV NS3/4A proteolytic activity (H77 strain). The format is biochemical. The source says:
HCV NS3 protease complexes, derived from the BMS strain, H77 strain or J4L6S strain, were generated, as described below. These purified recombinant proteins were generated for use in a homogeneous assay (see below) to provide an indication of how effective compounds of the present disclosure would be in inhibiting HCV NS3 proteolytic activity.
Serum from an HCV-infected patient was obtained from Dr. T. Wright, San Francisco Hospital. An engineered full-length cDNA (compliment deoxyribonucleic acid) template of the HCV genome (BMS strain) was constructed from DNA fragments obtained by reverse transcription-PCR (RT-PCR) of serum RNA (ribonucleic acid) and using primers selected on the basis of homology between other genotype 1a strains. From the determination of the entire genome sequence, a genotype 1a was assigned to the HCV isolate according to the classification of Simmonds et al. (See P Simmonds, K A Rose, S Graham, S W Chan, F McOmish, B C Dow, E A Follett, P L Yap and H Marsden, J. Clin. Microbiol., 31(6), 1493-1503 (1993)). […]

T1 sequence (P27958 1027-1711 C1454S/C1711G, one chain of several): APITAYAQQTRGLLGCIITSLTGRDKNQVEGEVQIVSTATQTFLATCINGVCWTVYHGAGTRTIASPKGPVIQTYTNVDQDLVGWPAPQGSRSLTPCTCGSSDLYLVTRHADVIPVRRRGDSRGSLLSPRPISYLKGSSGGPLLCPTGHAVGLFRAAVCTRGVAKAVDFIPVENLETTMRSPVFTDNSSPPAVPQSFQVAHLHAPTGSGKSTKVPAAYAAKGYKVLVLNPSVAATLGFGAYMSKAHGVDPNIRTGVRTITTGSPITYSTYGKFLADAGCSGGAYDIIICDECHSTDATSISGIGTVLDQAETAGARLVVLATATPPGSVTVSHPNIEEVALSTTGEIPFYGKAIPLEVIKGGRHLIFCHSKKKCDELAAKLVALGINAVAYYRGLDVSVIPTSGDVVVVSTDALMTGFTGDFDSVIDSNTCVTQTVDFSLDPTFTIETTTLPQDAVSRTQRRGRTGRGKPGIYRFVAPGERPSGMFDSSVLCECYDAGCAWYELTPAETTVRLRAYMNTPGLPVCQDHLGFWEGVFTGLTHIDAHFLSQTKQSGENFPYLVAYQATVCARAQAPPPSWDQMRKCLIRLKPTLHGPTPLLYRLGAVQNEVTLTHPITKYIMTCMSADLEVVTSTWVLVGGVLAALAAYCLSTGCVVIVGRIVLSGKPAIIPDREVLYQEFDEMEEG

By IC50 is commonly meant the concentration that gives 50% inhibition. Low readings indicate higher potency, high ones lower potency. `CC(C)(C)OC(=O)N[C@H]1CCCCC/C=C\[C@@H]2C[C@@]2(C(=O)NS(=O)(=O)C2CC2)NC(=O)[C@@H]2C[C@@H](OC(=O)c3ccc(C#N)cc3)CN2C1=O` [Compound 26, 18-(4-cyanobenzoyloxy)-14-tert-butoxycarbonylamino-4-cyclopropylsulfonylaminocarbonyl-2,15-dioxo-3,16-diazatricyclo-[14.3.0.0^4,6]-nonadec-7-ene] returned a half-maximal inhibitory concentration (IC50) of 0.53 nM.

Values taken from patent US7772183B2 (Bristol-Myers Squibb Company, priority 2005, dated 2010).
